Test results published in the supplement of paper PMC11208160.

Assay: recombinant barcode read abundance after kanamycin selection (control-corrected) (log10(CPM+1)); higher = more efficient recombination; sequences stand for … in AGTGCAGAGAAAATCGGCCAGTTTTCTCTGCCTGCAGTCCGCATGCCGT…AGATTTATGCAGCGGACTGCCTTTCTCCCAAAGTGATAAACCGGACAGTATCATGGACCGGTTTTCCCGGTAATCCGTATTTGCAAGGTTGGTTTCACT; site = the 11-nt target
Method in brief: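 Recombination efficiency draws on barcodes counted at recombinant junctions in a pooled E. coli screen of targets paired with IS621 bridge RNA target-binding loops. The counts were converted to counts per million, averaged and corrected against the chloramphenicol/ampicillin LB agar control, then reported as log10(CPM+1). Selection plates held chloramphenicol/ampicillin/kanamycin with 0.1 mM IPTG, with two replicates per condition.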
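Further: IS621 recombinase and bridge RNA in Escherichia coli cells.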

Sequence | recombinant barcode read abundance (log10)
CTAAGGTCTTGGGTTCTAACCTGTTGCGT (site CTAAGGTCTAG) | 0.209
CTAAGGTCTTGGGTTCTAACCTGTTGCGT (site CTAAGGTCTAT) | 1.9
CTAAGGTCTTGGGTTCTAACCTGTTGCTT (site CTAAGGTCTAA) | 0.462
CTAAGGTCTTGGGTTCTAACCTGTTGCTT (site CTAAGGTCTAC) | 0.132
CTAAGGTCTTGGGTTCTAACCTGTTGCTT (site CTAAGGTCTAG) | 0.186
CTAAGGTCTTGGGTTCTAACCTGTTGCTT (site CTAAGGTCTAT) | 0.886
CTAAGTACTTGGGTTCTAACCTGTTGCAG (site CTAAGTACTCT) | 1.56
CTAAGTACTTGGGTTCTAACCTGTTGCAG (site CTAATTACTTT) | 0.56
CTAATATCTTGGGTTCTAACCTGTTGCAT (site AATGGTCCTTG) | 0.105
CTAATATCTTGGGTTCTAACCTGTTGCAT (site CTAATATCTAT) | 1.26
CTAATCCCTTGGGTTCTAACCTGTTGCAT (site CATATCCCTAT) | 0.0276
CTAATCCCTTGGGTTCTAACCTGTTGCAT (site CTAATCCCTAT) | 1.59
CTAATGGCTTGGGTTCTAACCTGTTGCCT (site CTAATAGCTAG) | 0.176
CTAATGGCTTGGGTTCTAACCTGTTGCCT (site CTAATGGCTAG) | 0.178
CTACAACCTTGGGTTCTAACCTGTTGCAG (site CTACAACCTCT) | 2.02
CTACAACCTTGGGTTCTAACCTGTTGCAG (site TGGACTACTGA) | 0.25
CTACACACTTGGGTTCTAACCTGTTGCTA (site CTACACACTGA) | 0.00924
CTACACACTTGGGTTCTAACCTGTTGCTA (site CTACACACTTA) | 1.91
CTACACCCTTGGGTTCTAACCTGTTGCGA (site CTAAACCCTAC) | 0.0483
CTACACCCTTGGGTTCTAACCTGTTGCGA (site CTACACCCTTC) | 2.39
CTACATCCTTGGGTTCTAACCTGTTGCTT (site CTACAACCTAA) | 0.00817
CTACATCCTTGGGTTCTAACCTGTTGCTT (site CTACACCCTAA) | 0.157

Sequence | recombinant barcode read abundance (log10)
CTACATCCTTGGGTTCTAACCTGTTGCTT (site CTACAGCCTAA) | 0.0896
CTACATCCTTGGGTTCTAACCTGTTGCTT (site CTACATCCTAA) | 1.49
CTACCTACTTGGGTTCTAACCTGTTGCGG (site AATATCTCTTG) | 0.224
CTACCTACTTGGGTTCTAACCTGTTGCGG (site CTACCTACTCC) | 2.72
CTACGAACTTGGGTTCTAACCTGTTGCGG (site CTACGAACTCC) | 2.17
CTACGAACTTGGGTTCTAACCTGTTGCGG (site TGGACCTCTTG) | 0.181
CTACGACCTTGGGTTCTAACCTGTTGCAG (site CTACGACCTCT) | 2.56
CTACGACCTTGGGTTCTAACCTGTTGCAG (site TACGATACTAC) | 0.186
CTACGACCTTGGGTTCTAACCTGTTGCGG (site CTACGACCTCC) | 2.9
CTACGACCTTGGGTTCTAACCTGTTGCGG (site TACAAGTCTAG) | 0.164
CTACGCGCTTGGGTTCTAACCTGTTGCTT (site CTACGCGCTAA) | 0.921
CTACGCGCTTGGGTTCTAACCTGTTGCTT (site GTACGCGCTAC) | 0.309
CTACGGCCTTGGGTTCTAACCTGTTGCGT (site CTACGGCCTAC) | 1.05
CTACGGCCTTGGGTTCTAACCTGTTGCGT (site GGACGGCCTAC) | 0.281
CTAGACTCTTGGGTTCTAACCTGTTGCAC (site CTAGACTCTAT) | 0.626
CTAGACTCTTGGGTTCTAACCTGTTGCAC (site CTAGACTCTCT) | 0.0956
CTAGACTCTTGGGTTCTAACCTGTTGCAC (site CTAGACTCTGT) | 2.77
CTAGACTCTTGGGTTCTAACCTGTTGCAC (site CTAGACTCTTT) | 0.11
CTAGACTCTTGGGTTCTAACCTGTTGCAG (site CTAGACTCTAT) | 0.88
CTAGACTCTTGGGTTCTAACCTGTTGCAG (site CTAGACTCTCT) | 2.42
CTAGACTCTTGGGTTCTAACCTGTTGCAG (site CTAGACTCTGT) | 1.16
CTAGACTCTTGGGTTCTAACCTGTTGCAG (site CTAGACTCTTT) | 0.376

Sequence | recombinant barcode read abundance (log10)
CTAGCGACTTGGGTTCTAACCTGTTGCAC (site AGGAGAGCTAA) | 0.409
CTAGCGACTTGGGTTCTAACCTGTTGCAC (site CTAGCGACTGT) | 1.15
CTAGCGACTTGGGTTCTAACCTGTTGCCG (site ACGCTATCTAA) | 0.102
CTAGCGACTTGGGTTCTAACCTGTTGCCG (site CTAGCGACTCG) | 0.834
CTAGCTCCTTGGGTTCTAACCTGTTGCTT (site CTAGCTCCTAA) | 0.0882
CTAGCTCCTTGGGTTCTAACCTGTTGCTT (site GCTTGGTCTTC) | 0.0776
CTAGGAGCTTGGGTTCTAACCTGTTGCCT (site CTAGGACCTTG) | 0.0183
CTAGGAGCTTGGGTTCTAACCTGTTGCCT (site CTAGGAGCTAG) | 0.148
CTAGGAGCTTGGGTTCTAACCTGTTGCTA (site CTAGGAGCTAA) | 0.137
CTAGGAGCTTGGGTTCTAACCTGTTGCTA (site CTAGGAGCTCA) | 0.231
CTAGGAGCTTGGGTTCTAACCTGTTGCTA (site CTAGGAGCTGA) | 0.0444
CTAGGAGCTTGGGTTCTAACCTGTTGCTA (site CTAGGAGCTTA) | 1.23
CTAGGAGCTTGGGTTCTAACCTGTTGCTG (site CTAGGAGCTAA) | 0.19
CTAGGAGCTTGGGTTCTAACCTGTTGCTG (site CTAGGAGCTCA) | 1.75
CTAGGAGCTTGGGTTCTAACCTGTTGCTG (site CTAGGAGCTGA) | 0.169
CTAGGAGCTTGGGTTCTAACCTGTTGCTG (site CTAGGAGCTTA) | 0.073
CTAGGATCTTGGGTTCTAACCTGTTGCCA (site CTAGGATCTAT) | 0.844
CTAGGATCTTGGGTTCTAACCTGTTGCCA (site CTAGGATCTTG) | 0.24
CTAGGCCCTTGGGTTCTAACCTGTTGCGT (site CTAGGCCCTAA) | 0.361
CTAGGCCCTTGGGTTCTAACCTGTTGCGT (site CTAGGCCCTAC) | 3.3
CTAGGCCCTTGGGTTCTAACCTGTTGCGT (site CTAGGCCCTAG) | 0.264
CTAGGCCCTTGGGTTCTAACCTGTTGCGT (site CTAGGCCCTAT) | 2.28

Sequence | recombinant barcode read abundance (log10)
CTAGTAGCTTGGGTTCTAACCTGTTGCCG (site CTAGTAGCTCG) | 1.84
CTAGTAGCTTGGGTTCTAACCTGTTGCCG (site CTATTAGCTCG) | 0.277
CTAGTAGCTTGGGTTCTAACCTGTTGCGT (site CTAGTAGCTAC) | 2.25
CTAGTAGCTTGGGTTCTAACCTGTTGCGT (site CTAGTAGCTCC) | 0.378
CTAGTCTCTTGGGTTCTAACCTGTTGCGT (site CTAGGATCTAC) | 0.0308
CTAGTCTCTTGGGTTCTAACCTGTTGCGT (site CTAGTCTCTAC) | 3.07
CTAGTGACTTGGGTTCTAACCTGTTGCGC (site CTAGTGACTAC) | 0.0258
CTAGTGACTTGGGTTCTAACCTGTTGCGC (site CTAGTGACTCC) | 0.0835
CTAGTGACTTGGGTTCTAACCTGTTGCGC (site CTAGTGACTGC) | 2.12
CTAGTGACTTGGGTTCTAACCTGTTGCGC (site CTAGTGACTTC) | 0.127
CTAGTGACTTGGGTTCTAACCTGTTGCGT (site CTAGTGACTAC) | 1.17
CTAGTGACTTGGGTTCTAACCTGTTGCGT (site CTAGTGACTCC) | 0.313
CTAGTGACTTGGGTTCTAACCTGTTGCGT (site CTAGTGACTGC) | 0.0977
CTAGTGACTTGGGTTCTAACCTGTTGCGT (site CTAGTGACTTC) | 0.00958
CTATACTCTTGGGTTCTAACCTGTTGCCA (site CTATACTCTTG) | 1.03
CTATACTCTTGGGTTCTAACCTGTTGCCA (site CTATTCTCTTA) | 0.195
CTATATGCTTGGGTTCTAACCTGTTGCTT (site CTATATGCTAA) | 0.613
CTATATGCTTGGGTTCTAACCTGTTGCTT (site TAGACCACTGT) | 0.449
CTATCGCCTTGGGTTCTAACCTGTTGCCT (site CTATCGCCTAG) | 0.496
CTATCGCCTTGGGTTCTAACCTGTTGCCT (site CTCTCGCCTAG) | 0.238
